According to patent publication EP1628646B1, “USE OF PPAR-GAMMA AGONISTS AS ANTI-INFECTIVE AGENTS” (priority 2003, dated 2004):

Legend:
[1] = system: macrophages; test: Production of oxidants by cultured macrophages, luminol chemiluminescence; type: cell-based, souris; conditions: for Production d'agents oxydants, avec ANS / Production d'agents oxydants, avec ODN / Production d'agents oxydants, sans antisens: 1 h; for Production d'agents oxydants, avec ANS: macrophages incubated 3 days with non-specific antisense ANS, control 6972 ± 90; for Production d'agents oxydants, avec ODN: macrophages incubated 3 days with specific antisense ODN, control 6795 ± 178; for Production d'agents oxydants, sans antisens: without antisense, control 6737 ± 139
Experimental: Concernant le traitement à l'antisens ODN, une séquence complémentaire à la région 3' non traduite de l'ARNm du MMR (Yamamoto et al., Infect Immun, 1997, 65:1077-82), on incube l'antisens ODN (100 nM) avec 10 µg de lipide cationique Lipofectin (GIBCO, France) à 37°C pendant 5 min selon la méthode Capacciolis et al. (Biochem Biophys Res Commun, 1998, 197:818-25) puis on l'ajoute aux macrophages cultivés dans le DMEM sans sérum. Les cellules sont incubées pendant 4 heures à 37°C avec 5 % de CO2 atmosphérique. Le milieu est remplacé par du SFM contenant l'antisens ODN mais sans Lipofectin. Les cultures sont incubées pendant 3 jours avec un changement journalier du milieu. La concentration de l'antisens ODN utilisée n'entraîne aucune toxicité significative sur les macrophages. Les macrophages non traités et les macrophages traités avec la Lipofectin seule servent de contrôle. La séquence nucléique de l'antisens ODN est exposée dans le tableau 2. Le même traitement est réalisé avec un antisens non spécifique de l'ARNm du MMR, l'antisens ANS dont la séquence nucléique est exposée dans le tableau 2.
Pour les tests de production d'agents oxydants, l'explosion respiratoire oxygène-dépendante des macrophages traités par les agonistes de PPARγ est mesurée par chimiluminescence. Les macrophages (2.10^5) sont transférés sur des boîtes de culture de 5 mm de diamètre. Après activation des cellules, la production d'agents oxydants par les macrophages, en présence ou en absence de C. albicans, est mesurée par chimiluminescence en présence de luminol à 37°C. L'émission de chimiluminescence est enregistrée en continu pendant 1 heure après incubation des cellules avec le luminol (66 µM). Pour évaluer la production de l'anion superoxyde (O2^-), la chimiluminescence est mesurée en présence de SOD, un inhibiteur spécifique de la production d'anion superoxyde. Pour évaluer la production d'oxyde nitrique (NO), la chimiluminescence est mesurée en présence de la L-NMMA (NG-monométhyl-arginine, un compétiteur spécifique de la L-arginine pour la production de NO). Aucun des inhibiteurs n'affecte la viabilité aux concentrations utilisées.
Les analyses statistiques se basent sur la mesure de la surface sous la courbe et sont exprimées en coups x secondes.
La capacité des macrophages à produire de l'anion superoxyde et du monoxyde d'azote et leur modulation par la 15d-PGJ2 ont été également étudiées par la méthode de chimiluminescence qui permet d'évaluer non seulement la production d'anions superoxydes mais aussi celle du peroxynitrite produit au cours de l'interaction entre le monoxyde d'azote et l'anion superoxyde.
Afin d'évaluer la production d'anion superoxyde, la chimiluminescence a été mesurée- en présence ou non de SOD (enzyme métabolisant O2^- en H2O2) alors que la production de monoxyde d'azote est évaluée en présence d'un compétiteur de l'arginine qui est la L-NMMA. Tableau 3 : Effet des ligands agonistes de PPARγ sur la production d'agents oxydants par les macrophages en présence ou en absence de levure. L'évaluation de la production d'agents oxydants a été déterminée sur des macrophages en culture par la technique de chimiluminescence.
Cette étude a été réalisée afin de déterminer si l'augmentation de la production d'agents oxydants sous l'effet des agonistes de PPARγ dépendait ou non de la modulation des récepteurs mannose par ces différents traitements. Dans cet objectif, la modulation de la production d'agents oxydants par les macrophages transfectés par l'antisens spécifique des ARNm des récepteurs mannose a été étudiée. Après traitement avec les agonistes de PPARγ, le dosage de la quantité d'agents oxydants produits par les macrophages transfectés a été réalisé par chimiluminescence. Les résultats sont présentés dans le tableau 5. Tableau 5 : Implication du récepteur mannose dans la production d'agents oxydants des macrophages traités par les ligands de PPARγ. […]

[2] = system: cellules RAW 264.7; test: Mannose receptor expression on RAW 264.7 cells transfected with CMV-luciférase or CMV-PPARγ, flow cytometry; conditions: 24 h, 1 µM 15d-PGJ2, 5 µM ciglitazone, 5 µM rosiglitazone; for Moyenne géométrique de l'intensité de fluorescence, CMV-PPAR-γ: RAW 264.7 transfected with CMV-PPARγ, control 53,87; for Moyenne géométrique de l'intensité de fluorescence, CMV-LUC: RAW 264.7 transfected with CMV-luciférase, control 47,51
[3] = system: macrophages; test: Production of oxidants by macrophages from mice treated in vivo, chemiluminescence; set-up: species or system souris; conditions: macrophages from SWISS and RAG-2 mice treated in vivo, vs control mice; figure 7
Description: Afin d'évaluer la production d'agents oxydants (radicaux libres oxygénés et monoxyde d'azote) par les macrophages après la mise en culture des macrophages, les activités conjointes de la NADPH oxydase et de la NOsynthase inductible sont mesurées par chimiluminescence en présence d'une sonde chimiluminogène, Luminol (SIGMA, France) : 5-amino2,3-diydro-1,4-phtalazine-dione. La production de chimiluminescence sera analysée avec un luminomètre (Wallac Victor II, Finlande) piloté par un ordinateur. Le luminol permet, en présence d'agents oxydants, l'émission de photons captés par le photomultiplicateur de la chambre noire du luminomètre thermostaté à 37°C et transformés en impulsions électriques quantifiables. Les valeurs de chimiluminescence seront enregistrées continuellement pendant 1 heure après incubation des cellules avec le luminol ([…]) et en présence ou non de levures.
L'évaluation de la production d'agents oxydants par les macrophages, en présence ou en absence de la levure, a été déterminée sur des macrophages en culture par la technique de chimiluminescence. La figure 7 expose les résultats obtenus, en nombre de coups secondes (C x S) comptabilisés pendant 1 heure, pour chaque test.

[4] = system: récepteur mannose; test: Mannose receptor expression on macrophages from mice treated in vivo, flow cytometry; conditions: cells from SWISS and RAG-2 mice treated in vivo; figure 8
Description: (§1) Ces injections ont été renouvelées tous les jours durant 5 jours.
La quantité de molécule de mBSA fixée, reflet direct de la quantité de récepteurs mannose présente sur les cellules, a été analysée à l'aide d'un cytomètre en flux (FACScalibur, Becton Dickinson).

[5] = system: macrophages péritonéaux; test: Phagocytosis of C. albicans by peritoneal macrophages from infected mice treated in vivo; conditions: treated i.p. (15d-PGJ2 0,01 µmoles, rosiglitazone 0,1 µmoles), 1 h challenge 1:1
Experimental: L'étude in vitro a été réalisée sur des lots de 10 souris, soit immunocompétentes (SWISS) ou immunodéficientes (RAG-2), qui ont été infectées par C. albicans.
(§2) Les souris hébergées dans des cages stériles ont été infectées par gavage de 500 µl d'une suspension de levures (2.10^7 cfu.ml^-1).
as §1
Après une incubation de 2 heures à l'étuve à 37°C, 5 % CO2, les cellules non adhérentes ont été éliminées par deux rinçages en PBS.
Afin d'évaluer la capacité des macrophages à phagocyter C. albicans, une technique basée sur l'incorporation de nucléotides radioactifs (Uracile tritié) au niveau de l'ARN des levures en voie de multiplication a été réalisée. Les levures pré-marquées sont déposées sur les tapis macrophagiques et mises à incuber à 37°C sous 5 % CO2. […] Sachant que la radioactivité mesurée dans le lysat est proportionnelle à la quantité de levures phagocytées et que celle mesurée dans les surnageants est proportionnelle à la quantité de levures externes, le pourcentage de levures phagocytées par rapport à la quantité de levures totales sera déterminé selon la formule suivante : %Phagocytose = (dpmlysat)/(dpmlysat + dpmsurnageant) [formula]

[6] = system: C. albicans; test: Gastrointestinal candidiasis in mice: number of yeasts in organs by CFU and real-time quantitative PCR; conditions: SWISS and RAG-2 mice, oesophage, estomac, caecum, vs untreated mice, figure 10
Experimental: En parallèle, ce même protocole a été réalisé sur des souris SWISS immunocompétentes (Centre d'élevage - Etablissement Janvier, France).
as §2, §1
En cours et en fin d'expérimentation, des prélèvements sanguins ont été effectués afin de suivre la présence des levures dans le sang des souris. […] Au terme du protocole, les souris ont été euthanasiées et les différents organes ont été prélevés stérilement en vue de quantifier le nombre de levures présentes dans les différents organes par CFU et PCR quantitative en temps réel.
Pour quantifier le nombre de levures présentes dans les différents organes par CFU, après homogénéisation de chaque tissu, plusieurs dilutions sont réalisées et ensemencées dans des boîtes de culture. Les boîtes sont incubées à 35°C pendant 24 à 48 heures et le nombre de colonies est alors compté.
Pour quantifier le nombre de levures présentes dans les différents organes par PCR, après homogénéisation des différents organes, l'ADN total est extrait par la méthode phénol/chloroforme et soumis à une Q-PCR en temps réel. […] La détection se fait par hybridation de deux sondes marquées spécifiques de C. albicans (transfert de fluorescence).

[7] = system: macrophages péritonéaux; test: Phagocytosis of [3H]uracil-labelled C. albicans by treated peritoneal macrophages in vitro; type: cell-based, souris; conditions: effect of the PPARγ antagonist added; figure 2
Experimental: Les macrophages, quant à eux, proviennent soit du péritoine de souris femelles SWISS (Centre d'élevage, Etablissement Janvier, France), soit du sang périphérique de donneurs sains. Ces macrophages, de souris ou d'humain, sont cultivés dans un milieu de culture SFM ("serum-free medium") optimisé pour la culture des macrophages, commercialisé par la société GibcoBRL, France. L'adhésion des cellules se produit après environ 2 heures de culture à 37°C sous atmosphère à 5 % de CO2. Les cellules n'adhérant pas à la boîte de culture sont éliminées par rinçage au PBS (GibcoBRL, France).
Pour étudier le mécanisme d'ingestion de C. albicans par les macrophages, des levures préalablement marquées par [^3H]uracile sont utilisées. Trois colonies de C. albicans sont dispersées dans 1 ml de bouillon Sabouraud contenant 150 µCi de [^3H]uracile. Après 24 heures de culture à 37°C sous agitation, les blastospores marqués sont centrifugés et resuspendus dans le SFM enrichi avec 1,8 % de glucose. Pour chaque essai, les monocouches de macrophages cultivées sur les plaques 24 puits sont traitées avec les agonistes de PPARγ pendant 20 heures, puis infectées avec C. albicans marqué et viable (dans une proportion macrophages/levures de 1:1) et laissées à incuber pendant 1 heure à 37°C, puis 2 heures à 5°C. Soumis à 5°C, les mécanismes de phagocytose sont bloqués. […]

[8] = system: récepteur mannose; test: Mannose receptor expression on macrophages, FITC-mBSA flow cytometry; type: cell-based, souris; conditions: antagonist 0,1 µM, 24 h; figure 5
Experimental: Pour les essais de cytométrie en flux, les macrophages sont rincés au PBS glacé. Le marquage des MMR est réalisé pendant une heure, dans la glace, à la manière d'un ligand spécifique conjugué avec de l'albumine bovine mannosylée marquée à la fluorescéine FITC (840 nM) (SIGMA, France). Afin de faciliter la sélection des populations de cellules viables, une coloration à l'iodure de propidium est réalisée. Toutes les analyses sont effectuées par le FACScalibur (Becton-Dickinson) en utilisant le logiciel CellQuest.
Dans une deuxième étape, l'induction de l'expression du récepteur mannose des macrophages péritonéaux murins sous l'effet des différents traitements a été étudiée par cytométrie de flux en présence d'un antagoniste irréversible de PPARγ, le GW 9662.
Ces résultats sont confirmés par la figure 5 qui montre que l'augmentation de l'expression du récepteur mannose à la surface des macrophages sous l'effet de la 15d-PGJ2 est antagonisée par le GW 9662.
Pour ce faire, les macrophages ont été traités pendant 3 jours avec l'antisens spécifique de l'ARNm du récepteur mannose (ODN). […] Les cellules ont été ensuite incubées avec la mBSA marquée au FITC, puis analysées par cytométrie en flux. L'intensité de la fluorescence analysée est représentée à la figure 6.

Row | Structure (SMILES) | Production d'agents oxydants, avec ANS [1] | Production d'agents oxydants, avec ODN [1] | Production d'agents oxydants, sans antisens [1] | Moyenne géométrique de l'intensité de fluorescence, CMV-PPAR-γ [2] | Moyenne géométrique de l'intensité de fluorescence, CMV-LUC [2] | Production d'agents oxydants pendant 1 heure, + Levures L-NMMA ([1]; with yeast, in presence of L-NMMA) | Production d'agents oxydants pendant 1 heure, + Levures SOD ([1]; with yeast, in presence of SOD) | Production d'agents oxydants pendant 1 heure, + Levures ([1]; with yeast, no inhibitor) | Production d'agents oxydants pendant 1 heure, - Levure ([1]; without yeast) | production basale d'agents oxydants par les macrophages [3] | quantité d'albumine bovine mannosylée marquée à la fluorescéine présente sur les macrophages [4] | Index de phagocytose, RAG-2 ([5]; RAG-2 mice infected with C. albicans, control 59,82 ± 2,43) | Index de phagocytose, SWISS ([5]; SWISS mice infected with C. albicans, control 42,97 ± 1,20) | colonisation des différents organes (nombre de levures) [6] | augmentation de la capacité de phagocytose des macrophages traités par les agonistes de PPARγ [7] | augmentation de l'expression du récepteur mannose à la surface des macrophages sous l'effet de la 15d-PGJ2 [8]
1 | CC1(COc2ccc(CC3SC(=O)NC3=O)cc2)CCCCC1 (centres unmarked) [ciglitazone] | 8322 ± 183 coups x secondes | 7109 ± 155 coups x secondes | 8398 ± 104 coups x secondes | 64,3 | 38,51 |  |  |  |  |  |  |  |  |  |  | 
2 | CN(CCOc1ccc(CC2SC(=O)NC2=O)cc1)c1ccccn1 (centres unmarked) [rosiglitazone] | 8813 ± 190 coups x secondes | 7197 ± 77 coups x secondes | 8960 ± 179 coups x secondes | 61,51 | 37,94 |  |  |  |  |  |  |  |  |  |  | 
3 | CCCCCC=CC=C1C(=O)C=CC1CC=CCCCC(=O)O (centres unmarked) [15d-PGJ2, 15-déoxy-Δ^12,14-prostaglandine J2] | 9678 ± 106 coups x secondes | 7012 ± 98 coups x secondes | 9161 ± 85 coups x secondes | 73 | 44,29 | 14258 ± 216 coups x secondes | 7228 ± 212 coups x secondes | 13905 ± 328 coups x secondes | 7469 ± 238 coups x secondes | la même quantité basale d'agents oxydants | significativement augmentée | 76,32 ± 1,89 | 65,26 ± 2,11 | diminution significative de la colonisation |  | 
4 | O=C(Nc1ccccc1)c1cc([N+](=O)[O-])ccc1Cl [GW 9662] |  |  |  |  |  |  |  |  |  |  |  |  |  |  | inhibée | antagonisée
